From patent US9650388B2, “Form 2 crystalline polymorph of a salt of N-[1-6-(ethynyl-3-oxo-hexahydro-furo[3,2-B]pyrrole-4-carbonyl)-3-methyl-butyl]-4-[5-fluoro-2-(4-methyl-piperazinyl) thiazol-4-yl]-benzamide useful as cysteine protease inhibitor” (MEDIVIR AB, priority 2013, dated 2017)
Converted amounts (≈) assume the structure as drawn.

What was measured:
Assay type in all cases: physicochemical
[1] = Thermal analysis by DSC and TGA; settings: 10° C./min; for temperature of mass loss(es) on heating: TGA, Form 1: two distinct mass losses (FIG. 13), free base: a mass loss, probably water (FIG. 14)
Experimental: Differential Scanning Calorimetry (DSC)
DSC data were collected on a Mettler DSC 823e equipped with a 34 position auto-sampler. The instrument was calibrated for energy and temperature using certified indium. Typically 0.5-3 mg of each sample, in a pin-holed aluminium pan, was heated at 10° C./min from 25° C. to 300° C. A nitrogen purge at 50 ml/min was maintained over the sample.
Thermogravimetric Analysis (TGA)
TGA data were collected on a Mettler TGA/SDTA 851e equipped with a 34 position auto-sampler. The instrument was temperature calibrated using certified indium. Typically 5-30 mg of each sample was loaded onto a pre-weighed aluminium crucible and was heated at 10° C./min from ambient temperature to 400° C. A nitrogen purge at 50 ml/min was maintained over the sample.
Thermal analysis of Form 2 crystalline polymorph (a sample obtained using the method in Example 6) by DSC and TGA was undertaken using the method describe in General Methods. […]

[2] = Gravimetric vapour sorption (GVS); settings: 25° C.
Experimental: Gravimetric Vapour Sorption (GVS)
Sorption isotherms were obtained using a SMS DVS Intrinsic moisture sorption analyser, controlled by DVS Intrinsic Control software v1.0.0.30. The sample temperature was maintained at 25° C. by the instrument controls. The humidity was controlled by mixing streams of dry and wet nitrogen, with a total flow rate of 200 ml/min The relative humidity was measured by a calibrated Rotronic probe (dynamic range of 1.0-100% RH), located near the sample. The weight change, (mass relaxation) of the sample as a function of % RH was constantly monitored by the microbalance (accuracy ±0.005 mg).
Typically 5-20 mg of sample was placed in a tared mesh stainless steel basket under ambient conditions. The sample was loaded and unloaded at 40% RH and 25° C. (typical room conditions). A moisture sorption isotherm was performed as outlined below (2 scans giving 1 complete cycle). The standard isotherm was performed at 25° C. at 10% RH intervals over a 0-90% RH range. Data analysis was undertaken in Microsoft Excel using DVS Analysis Suite v6.0.0.7.
The sample was recovered after completion of the isotherm and re-analysed by XRPD.
Gravimetric vapour sorption analysis of Form 2 crystalline polymorph (a sample obtained using the method in Example 6) was undertaken using the method described in General Methods.

[3] = Solid state 13C NMR, environmental dependence of ketone:hydrate ratio; settings: as prepared 67:33
Experimental: The analysis was carried out using a Varian VNMRS instrument operating at 100.56 MHz for ^13C (399.88 MHz for 1H) and 376.24 MHz for ^19F with a 4 mm (rotor o.d.) magic-angle spinning probe. Carbon-13 spectra were recorded from the sample using a crosspolarization magic-angle spinning (CPMAS) technique without and with dipolar dephasing (interrupted decoupling). Appropriate acquisition conditions were established using a set of short trial measurements: recycle 5 s, contact time 5 ms. A sample spin-rate of 10.0 kHz was used along with two-pulse phase-modulated (TPPM) 1H decoupling (at a radiofrequency field approximately equivalent to 75 kHz). The sample was run as-received and at ambient probe temperature (˜30° C. at this spin rate). Spectra are referenced with respect to neat tetramethylsilane (by setting the high-frequency line from adamantane to 38.5 ppm). The ^19F spectrum was obtained by direct excitation following a 3.6 μs 90° pulse, with a 60 s relaxation delay, at spin rate of 14 kHz and with no 1H decoupling. The spectrum is referenced relative to CFCI3.
The analysis was carried out using a Varian VNMRS instrument operating at 100.56 MHz for ^13C (399.88 MHz for 1H) and a 6 mm (rotor o.d.) magic-angle spinning probe. Carbon-13 spectra were recorded from the sample using a cross-polarization magic-angle spinning (CPMAS) technique. […]
The ^13C solid state NMR spectrum of a sample of Form 2 crystalline polymorph produced using the method of Example 5 is illustrated in FIG. 5. Based on the integration of the 208 ppm (ketone) and 102 ppm (hydrate) signals, the ketone:hydrate ratio was determined to be 67:33.
The ^13C solid state NMR spectrum illustrated in FIG. 6 was recorded after the sample had been stored at a relative humidity of <2% for one week. […] The ^13C solid state NMR spectrum shown in FIG. 7 was recorded after the sample had been stored at 75% RH for one week. […] The ^13C solid state NMR spectrum shown in FIG. 8 was recorded at 80° C. and gives a ketone content of 68%.

[4] = Thermodynamic aqueous solubility
Experimental: Thermodynamic Aqueous Solubility
The suspension was equilibrated at 25° C. for 24 hours then the pH was measured. The suspension was then filtered through a glass fibre C filter into a 96 well plate. […] Quantitation was by HPLC with reference to a standard solution of approximately 0.25 mg·ml^−1 in DMSO. Different volumes of the standard, diluted and undiluted sample solutions were injected.
Analysis was performed on an Agilent HP1100 series system equipped with a diode array detector and using ChemStation software vB.02.01-SR1.

Row | solubility at 24 h ([4]; pH 5.8, thermodynamic from solid, suspension in water equilibrated at 25° C. for 24 hours, filtered, HPLC, pH of each suspension printed in same cell) | pH measured after equilibration of the solubility suspension ([4]; water, 25° C., 24 hours) | Compound | temperature of mass loss(es) on heating [1] | temperature at which degradation begins ([1]; DSC/TGA, nitrogen, small mass loss until this temperature (FIG. 12)) | reversibility of water uptake ([2]; 0-90% RH range) | water uptake ([2]; over the 0-90% RH range) | ketone share of ketone/hydrate signal intensity ([3]; after storage at 75% RH for one week (FIG. 7)) | ketone share of ketone/hydrate signal intensity ([3]; after storage at relative humidity <2% for one week (FIG. 6)) | ketone content ([3]; spectrum recorded at 80° C. (FIG. 8))
1 | – | – | C#CC1CN(C(=O)C(CC(C)C)NC(=O)c2ccc(-c3nc(N4CCN(C)CC4)sc3F)cc2)C2C(=O)COC12.Cl (stereo not shown) [Form 1 crystalline polymorph, N-[1-6-(ethynyl-3-oxo-hexahydro-furo[3,2-b]pyrrole-4-carbonyl)-3-methyl-butyl]-4-[5-fluoro-2-(4-methyl-piperazin-1-yl)thiazol-4-yl]-benzamide monohydrochloride] | below 160 °C | – | – | – | – | – | –
2 | – | – | N-[1-6-(ethynyl-3-oxo-hexahydro-furo[3,2-b]pyrrole-4-carbonyl)-3-methyl-butyl]-4-[5-fluoro-2-(4-methyl-piperazin-1-yl)thiazol-4-yl]-benzamide monohydrochloride and N-[1-6-(ethynyl-3-oxo-hexahydro-furo[3,2-b]pyrrole-4-carbonyl)-3-methyl-butyl]-4-[5-fluoro-2-(4-methyl-piperazin-1-yl)thiazol-4-yl]-benzamide hydrate monohydrochloride [Form 2 crystalline polymorph] | – | 160 °C | reversible | ~2.2% | 67% | 67% | 68%
3 | 300 µg/mL (≈ 528 µM) | 5.8 | C#C[C@@H]1CN(C(=O)[C@H](CC(C)C)NC(=O)c2ccc(-c3nc(N4CCN(C)CC4)sc3F)cc2)[C@@H]2C(=O)CO[C@H]12 [Compound I free base, N-[1-6-(ethynyl-3-oxo-hexahydro-furo[3,2-b]pyrrole-4-carbonyl)-3-methyl-butyl]-4-[5-fluoro-2-(4-methyl-piperazin-1-yl)thiazol-4-yl]-benzamide] | below 110 °C | – | – | – | – | – | –
